What all share (format): in vitro ADME
The subject of one data set is human hepatocytes. Kind of data set: Hepatocytes stability assay (human hepatocytes). The settings on record: human hepatocytes; scaled hepatic clearance divided by liver blood flow (well-stirred model, fu assumed unity). How it is done:
(§1) In vitro metabolic stability was assessed using cryopreserved hepatocytes from male Sprague Dawley rats and a pool of 50 mixed gender humans (BioIVT, Baltimore, MD). The incubation mixtures were prepared by mixing 250 μL of pre-warmed KHB (Krebs-Henseleit buffer) containing 2×10^6 cell/mL of hepatocytes with 250 μL of pre-warmed KHB buffer containing 2 μM of test compounds in a 48-well plate, giving a final concentration of 1 μM test compound (0.1% DMSO) and 1×10^6 cell/mL of hepatocytes. The reaction mixture was incubated at 37 degrees C. A 50 μL aliquot of incubation mixture was taken at time points (0, 15, 30, 60, 120 and 240 minutes) and transferred into a 96-well plate containing 300 μL ice-cold acetonitrile (containing 30 ng/mL of labetalol and 10 ng/mL of Naltrexone-d3 as internal standards) and immediately placed in ice to terminate the reaction. Samples were centrifuged, and supernatants were transferred into 96-well plates for liquid chromatography with tandem mass spectrometry (LC-MS/MS) analysis to monitor the depletion of the test compound.
(§2) Data was calculated as percent remaining by assuming zero-minute time point peak area ratio (analyte/IS) as 100% and dividing remaining time point peak area ratios by zero-minute time point peak area ratio. Data were fitted to a first-order decay model to determine half-life. From a plot of log (ln) peak area against time, the slope of the line was determined. Subsequently, half-life (T1/2) and intrinsic clearance (CLint) were calculated using the equations below: Elimination rate constant (k)=(−slope) Half-life (T1/2) min=0.693/k Intrinsic Clearance (CLint) (mL/min/million cells)=(V×0.693)/T1/2 V=incubation volume mL/number of cells The in vitro T1/2 was converted to in vitro intrinsic clearance (CLint,hep) in units of mL/min/kg using the formula shown below:
(§3) [formula] The in vitro intrinsic clearance (CLint,hep) was scaled to in vivo hepatic clearance (CL,hep) using the following equation which was adapted from a well-stirred model.
(§4) [formula] where Q is the liver blood flow and fu is the fraction unbound (assumed to be unity in this case). All parameters used in the calculation are shown below (Table 4).
(§5) The extraction ratio (ER) was calculated by dividing the hepatic clearance of a compound to the liver blood flow. The data reported in Table 5 were obtained according to the human hepatocytes stability assay described above.

The nature of data set [1]: Hepatocytes stability assay (human hepatocytes). As to conditions: both sexes, human, cryopreserved hepatocytes, cryopreserved human hepatocytes (pool of 50 mixed gender); 1 μM test compound; 1×10^6 cell/mL; 37 degrees C; read-out: CLint (μL/min/million cells). The procedure:
as §1, §2, §3, §4, §5

The subject of another data set is MDR1. Kind of data set: MDCK-MDR1 permeability assay. The settings on record: dog, MDCK-MDR1, MDCK-MDR1 cells; for efflux ratio at 2 h, 3 μM: Papp B→A divided by Papp A→B, read-out: Efflux ratio (ER); for Papp A→B at 2 h, 3 μM: test compound 3 μM, 2 hours at 37 degrees C, apical to basolateral. The procedure: The bidirectional permeability (Apical to Basal and Basal to Apical directions) of test compounds in MDCK-MIDR1 cells were evaluated using MDCK-MIDR1 cells seeded in Solvo PreadyPort™ MDCK 96-well plate. Once the plate was received from ReadyCell (Barcelona, Spain), it was treated as per PreadyPort™ user's manual.
For the Apical to Basolateral (A→B) permeability, 80 μL of test compound (3 μM) co-dosed with LY (Lucifer Yellow) (100 μM) in HBSS (Hank's Balanced Salt Solution) assay buffer was added to the donor side (A) while 250 μL of HBSS buffer was added to the receiver side (B). For the Basolateral to Apical (B→A) permeability, 255 μL of test compound (3 μM) in HBSS assay buffer was added to the donor side (B) while 75 μL of HBSS buffer containing LY (100 μM) was added to the receiver side (A).
The plate was placed in an incubator set at 37 degrees C. After 10 minutes of pre-warming, 5 μL aliquot was taken from donor compartment and set aside as the dosing solution. The MDCK-MDR1 incubation plate was placed back into the incubator for 2 hours of incubation at 37 degrees C. After 2 hours of incubation, 25 μL and 5 μL aliquots were removed from the receiver and donor sides, respectively. To the 5 μL aliquots taken from the donor sides (before and after a 2-hour incubation) were diluted with 20 μL of the HBSS buffer. All samples were mixed with 150 μL with acetonitrile containing internal standard (IS) and 200 μL water, and analyzed by LC-MS/MS.
The apparent permeability (Papp) was calculated using the following formula: Papp=dQ/dt×1/A×C0 where: • dQ/dt: amount of translocated material over incubation time (nmol/s) • A: area of insert (0.14 cm^2 for PreadyPort™ MDR1-96) • C0: initial concentration of product applied in apical (A→B) or basal (B→A) compartment (nmol/mL)
The efflux ratio (ER) was measured by dividing the Papp (basolateral to apical direction) by Papp (apical to basolateral direction). It is a general measure of the involvement of active processes. An ER>2 is considered positive for active transport.
Percent recovery was measured using the following equation:
[formula] where: • VR: Volume of the receiver compartment (mL) • VD: Volume of the donor compartment (mL) • CN: Concentration of dosing solution (μM) collected after 10 minutes of incubation • CR^final: Receiver concentration at the end of the incubation (μM) • CD^final: Donor concentration at the end of the incubation (μM)
The data reported in Table 3 were obtained according to the MDCK-MDR1 permeability assay described above.

The record followed here is patent US12006330B2, “Substituted macrocyclic compounds and related methods of treatment” (Alkermes, Inc., priority 2020, dated 2024).

Bounds are passed on as bounds.

Turning to `CC(C)S(=O)(=O)N[C@H]1CCCN2CCOc3ncccc3[C@H]3CC[C@H](CC3)OCC12` (stereo in doubt) [Compound 64], in the data set on human hepatocytes, the “Extraction Ratio (ER)” value came out at 0.87. In data set [1], the hepatocyte CLint at 1 μM was 46 µL/min/1e6 cells. Besides, in the data set on MDR1, the efflux ratio at 2 h, 3 μM is 1.2 and the Papp A→B at 2 h, 3 μM came to 12 ×10⁻⁶ cm/s.
The like results for `O=C1COc2nnccc2[C@H]2CC[C@H](CC2)OCC2[C@@H](NS(=O)(=O)C3CC3)CCCN12` (stereo in doubt) [Compound 67] were, in that order, 0.27, 2.5 µL/min/1e6 cells, 63 and < 0.036 ×10⁻⁶ cm/s.
The like results for `Cc1ncnc2c1[C@H]1CC[C@H](CC1)OCC1[C@@H](NS(=O)(=O)C(C)C)CCCN1C(=O)CO2` (stereo in doubt) [Compound 69] were, in that order, 0.34, 3.4 µL/min/1e6 cells, > 100 and < 0.041 ×10⁻⁶ cm/s.
The like results for `Cc1cccc2c1[C@H]1CC[C@H](CC1)OCC1[C@@H](NS(=O)(=O)C3CC3)CCN1C(=O)CO2` (stereo in doubt) [Compound 70] were, in that order, 0.87, 45 µL/min/1e6 cells, 4.2 and 3.7 ×10⁻⁶ cm/s.
In the case of `O=C1COc2cccc(F)c2[C@H]2CC[C@H](CC2)OCC2[C@@H](NS(=O)(=O)C3CC3)CCCN12` (stereo in doubt) [Compound 74], the “Extraction Ratio (ER)” value in the data set on human hepatocytes was determined as 0.69. For the same compound, the hepatocyte CLint at 1 μM in data set [1] stood at 15 µL/min/1e6 cells. For the same compound, in the data set on MDR1, the efflux ratio at 2 h, 3 μM came to 41 and the Papp A→B at 2 h, 3 μM was found to be 0.62 ×10⁻⁶ cm/s.
For `Cc1c(Cl)ccc2c1[C@H]1CC[C@H](CC1)OCC1[C@@H](NS(=O)(=O)C3CC3)CCCN1C(=O)CO2` (stereo in doubt) [Compound 75] the same measures were 0.61, 11 µL/min/1e6 cells, 65 and 0.3 ×10⁻⁶ cm/s.
For `Cc1ccc2c(c1C)[C@H]1CC[C@H](CC1)OCC1[C@@H](NS(=O)(=O)C(C)C)CCCN1C(=O)CO2` (stereo in doubt) [Compound 76] the same measures were 0.59, 9.8 µL/min/1e6 cells, 28 and 0.57 ×10⁻⁶ cm/s.
For `Cc1ccc2c(c1C)[C@H]1CC[C@H](CC1)OCC1[C@@H](NS(=O)(=O)C3CC3)CCCN1C(=O)CO2` (stereo in doubt) [Compound 77], the “Extraction Ratio (ER)” value with human hepatocytes is reported as 0.63. For the same compound, the hepatocyte CLint at 1 μM in data set [1] stood at 12 µL/min/1e6 cells. For the same compound, in the data set on MDR1, the efflux ratio at 2 h, 3 μM is 27 and the Papp A→B at 2 h, 3 μM came to 0.79 ×10⁻⁶ cm/s.
The like results for `Cc1ccc2c(c1C)[C@H]1CC[C@H](CC1)OCC1[C@@H](NS(C)(=O)=O)CCCN1C(=O)CO2` (stereo in doubt) [Compound 78] were, in that order, 0.52, 7.2 µL/min/1e6 cells, 74 and 0.41 ×10⁻⁶ cm/s.
For `Cc1cccc2c1[C@H]1CC[C@H](CC1)OCC1[C@@H](NS(=O)(=O)C(C)C)CCN1C(=O)CO2` (stereo in doubt) [Compound 79] the same measures were 0.87, 46 µL/min/1e6 cells, 3.8 and 5.7 ×10⁻⁶ cm/s.
On to `O=C1COc2ccccc2[C@H]2CC[C@H](CC2)OCC2[C@@H](NS(=O)(=O)C3COC3)CCCN12` (stereo in doubt) [Compound 80], for which the “Extraction Ratio (ER)” value with human hepatocytes is 0.63. For the same compound, the hepatocyte CLint at 1 μM in data set [1] came to 11 µL/min/1e6 cells. Moreover, in the data set with MDR1, the efflux ratio at 2 h, 3 μM was determined as 51 and the Papp A→B at 2 h, 3 μM was 0.79 ×10⁻⁶ cm/s.
The like results for `Cc1ncnc2c1[C@H]1CC[C@H](CC1)OCC1[C@@H](NS(C)(=O)=O)CCN1C(=O)CO2` (stereo in doubt) [Compound 82] were, in that order, <0.22, < 1.9 µL/min/1e6 cells, 59 and 0.58 ×10⁻⁶ cm/s.
As for `Cc1ncnc2c1[C@H]1CC[C@H](CC1)OCC1[C@@H](NS(=O)(=O)C3CC3)CCN1C(=O)CO2` (stereo in doubt) [Compound 83], the “Extraction Ratio (ER)” value in the data set with human hepatocytes is recorded as 0.28. Also, the hepatocyte CLint at 1 μM in data set [1] was found to be 2.6 µL/min/1e6 cells. Moreover, in the data set on MDR1, the efflux ratio at 2 h, 3 μM was determined as 46 and the Papp A→B at 2 h, 3 μM was 0.85 ×10⁻⁶ cm/s.
On to `Cc1ncnc2c1[C@H]1CC[C@H](CC1)OCC1[C@@H](NS(=O)(=O)C(C)C)CCN1C(=O)CO2` (stereo in doubt) [Compound 86], for which the “Extraction Ratio (ER)” value in the data set with human hepatocytes is reported as 0.38. Also, the hepatocyte CLint at 1 μM in data set [1] stood at 4.1 µL/min/1e6 cells. In the data set on MDR1, the efflux ratio at 2 h, 3 μM amounted to 24 and the Papp A→B at 2 h, 3 μM was determined as 1.9 ×10⁻⁶ cm/s.
The like results for `Cc1ccnc2c1[C@H]1CC[C@H](CC1)OCC1[C@@H](NS(=O)(=O)C3COC3)CCCN1C(=O)CO2` (stereo in doubt) [Compound 88] were, in that order, 0.50, 6.7 µL/min/1e6 cells, 25 and 0.84 ×10⁻⁶ cm/s.
